According to ChEMBL document CHEMBL1201862, “PubChem BioAssay data set” (2004):
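Where inhibition never reached the appropriate level, the endpoint shown equals the highest concentration tested. Otherwise, values were interpolated linearly from a five-concentration, 48-hour dose response in 96-well plates. GI50 marks 50% less growth.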 Calls of active or inactive are those of the source. Cut-off read from the data, not from the text of the source: active = GI50 up to about 1.1 µM and inactive = higher.

Key:
Test in all cases: DTP human tumour cell line panel, 48 h
SNB-19 = tested on: SNB-19
DU-145 = tested on: DU-145
K562 = tested on: K562
SF-268 = tested on: SF-268
SN12C = tested on: SN12C
HL-60 = tested on: HL-60
IGROV-1 = tested on: IGROV-1
HT-29 = tested on: HT-29
OVCAR-3 = tested on: OVCAR-3
COLO 205 = tested on: COLO 205
MOLT-4 = tested on: MOLT-4
SR = tested on: SR
A498 = tested on: A498
SW-620 = tested on: SW-620
M14 = tested on: M14
TK-10 = tested on: TK-10
LOX IMVI = tested on: LOX IMVI
SF-539 = tested on: SF-539
OVCAR-8 = tested on: OVCAR-8
Malme-3M = tested on: Malme-3M

Row | Structure (SMILES) | GI50 (SNB-19) | GI50 (DU-145) | GI50 (K562) | GI50 (SF-268) | GI50 (SN12C) | GI50 (HL-60) | GI50 (IGROV-1) | GI50 (HT-29) | GI50 (OVCAR-3) | GI50 (COLO 205) | GI50 (MOLT-4) | GI50 (SR) | GI50 (A498) | GI50 (SW-620) | GI50 (M14) | GI50 (TK-10) | GI50 (LOX IMVI) | GI50 (SF-539) | GI50 (OVCAR-8) | GI50 (Malme-3M)
1 | CC(C)=CCNc1ncnc2c1ncn2CCC#N | > 100 µM (inactive) | > 100 µM (inactive) | > 100 µM (inactive) | > 100 µM (inactive) | > 100 µM (inactive) | > 100 µM (inactive) | > 100 µM (inactive) | > 100 µM (inactive) | > 100 µM (inactive) | > 100 µM (inactive) | > 100 µM (inactive) | > 100 µM (inactive) | > 100 µM (inactive) | > 100 µM (inactive) | > 100 µM (inactive) | > 100 µM (inactive) | > 100 µM (inactive) | > 100 µM (inactive) | > 100 µM (inactive) | > 100 µM (inactive)
2 | C=C1CC(COc2ccc3c(C)c(Cl)c(=O)oc3c2)(c2ccccc2)OC1=O (stereo not drawn) | 13.8 µM (inactive) | 3.01 µM (inactive) | 0.422 µM (active) | 4.46 µM (inactive) | 6.1 µM (inactive) | 0.277 µM (active) | 1.94 µM (inactive) | 1.24 µM (inactive) | 2.14 µM (inactive) | 0.675 µM (active) | 0.805 µM (active) | 1.3 µM (inactive) | 11.8 µM (inactive) | 0.69 µM (active) | 1.04 µM (active) | 1.53 µM (inactive) | 0.887 µM (active) | 3.38 µM (inactive) | 2.06 µM (inactive) | 1.67 µM (inactive)
3 | Cc1cc2nc3ccc(N(C)C)cc3[s+]c2cc1N [TOLONIUM CHLORIDE] | 2.69 µM (inactive) | 15.7 µM (inactive) | 2.22 µM (inactive) | 5.38 µM (inactive) | 3.1 µM (inactive) | 0.383 µM (active) | 6.22 µM (inactive) | 7.93 µM (inactive) | 0.995 µM (active) | 2.97 µM (inactive) | 2.69 µM (inactive) | 3.67 µM (inactive) | 21.3 µM (inactive) | 2.86 µM (inactive) | 2.24 µM (inactive) | 19.2 µM (inactive) | 1.96 µM (inactive) | 2.63 µM (inactive) | 2.16 µM (inactive) | 1.93 µM (inactive)
4 | CC(C)CCC/C(CBr)=C(\Cl)CCl | 14.5 µM (inactive) | 5.52 µM (inactive) | 0.104 µM (active) | 3.55 µM (inactive) | 2.82 µM (inactive) | 0.103 µM (active) | 1.6 µM (inactive) | 2.37 µM (inactive) | 2.53 µM (inactive) | 1.83 µM (inactive) | 0.653 µM (active) | 0.746 µM (active) | 20.7 µM (inactive) | 1.5 µM (inactive) | 1.93 µM (inactive) | 1.88 µM (inactive) | 0.0728 µM (active) | 10.4 µM (inactive) | 1.56 µM (inactive) | 2.59 µM (inactive)
5 | Nc1nc(S)nc2snnc12 | > 100 µM (inactive) | > 100 µM (inactive) | > 100 µM (inactive) | > 100 µM (inactive) | > 100 µM (inactive) | > 100 µM (inactive) | > 100 µM (inactive) | > 100 µM (inactive) | > 100 µM (inactive) | > 100 µM (inactive) | > 100 µM (inactive) | > 100 µM (inactive) | > 100 µM (inactive) | > 100 µM (inactive) |  | > 100 µM (inactive) | > 100 µM (inactive) | > 100 µM (inactive) | > 100 µM (inactive) | > 100 µM (inactive)
6 | CCn1c2ccccc2c2ccc(C3C(C(=O)OC)=C(C)NC(C)=C3C(=O)OC)cc21 | 55.8 µM (inactive) | > 100 µM (inactive) | 41.7 µM (inactive) | 73.8 µM (inactive) | 45.1 µM (inactive) | 20.1 µM (inactive) | > 100 µM (inactive) | 33.7 µM (inactive) | 33.3 µM (inactive) | 48.5 µM (inactive) | 28.2 µM (inactive) | 42.9 µM (inactive) | 19.8 µM (inactive) | 66.1 µM (inactive) |  | 59.2 µM (inactive) | 35.8 µM (inactive) | 30.2 µM (inactive) | 49.3 µM (inactive) | 20 µM (inactive)
7 | O=Cc1ccc2[nH]c(=O)oc2c1 | > 100 µM (inactive) | > 100 µM (inactive) | > 100 µM (inactive) | > 100 µM (inactive) | > 100 µM (inactive) | 99.5 µM (inactive) | > 100 µM (inactive) | > 100 µM (inactive) | > 100 µM (inactive) | > 100 µM (inactive) | 60.4 µM (inactive) | 39.7 µM (inactive) | > 100 µM (inactive) | > 100 µM (inactive) | > 100 µM (inactive) | > 100 µM (inactive) | > 100 µM (inactive) | > 100 µM (inactive) | > 100 µM (inactive) | > 100 µM (inactive)
8 | O=C(NCCN1CCOCC1)c1cn2c(ccc3sc4ccccc4c(=O)c32)n1 | 87.5 µM (inactive) | > 100 µM (inactive) | 9.86 µM (inactive) | 12.3 µM (inactive) | 13.1 µM (inactive) | 8.02 µM (inactive) | 22.9 µM (inactive) | 6.56 µM (inactive) | > 100 µM (inactive) | 7.24 µM (inactive) | 3.3 µM (inactive) | 9.73 µM (inactive) | 17.3 µM (inactive) | 4.85 µM (inactive) |  | > 100 µM (inactive) | 10.3 µM (inactive) | 45.3 µM (inactive) | > 100 µM (inactive) | 22.7 µM (inactive)
9 | CO/N=C(\C)CCC#Cc1ccccc1C(=O)OC | > 10 µM (inactive) | > 10 µM (inactive) | > 10 µM (inactive) | > 10 µM (inactive) | > 10 µM (inactive) | > 10 µM (inactive) | > 10 µM (inactive) | > 10 µM (inactive) | > 10 µM (inactive) | > 10 µM (inactive) | > 10 µM (inactive) | > 10 µM (inactive) | > 10 µM (inactive) | > 10 µM (inactive) | > 10 µM (inactive) | > 10 µM (inactive) | > 10 µM (inactive) | > 10 µM (inactive) | > 10 µM (inactive) | > 10 µM (inactive)
10 | O=C(CN1CCCCC1)c1ccc2c(c1)Sc1ccccc1O2 | 13.7 µM (inactive) | 20.9 µM (inactive) | 57 µM (inactive) | 17.5 µM (inactive) | 19.2 µM (inactive) | 14.2 µM (inactive) | 10.6 µM (inactive) | 10.9 µM (inactive) | 15.3 µM (inactive) | 7.73 µM (inactive) | 23.1 µM (inactive) | 18.4 µM (inactive) | 16 µM (inactive) | 17.8 µM (inactive) | 14.1 µM (inactive) | 18.9 µM (inactive) | 10.2 µM (inactive) | 14.3 µM (inactive) | 16.9 µM (inactive) | 17.6 µM (inactive)
11 | COc1ccccc1NC(=O)C(C#N)=C(SC)SC | > 100 µM (inactive) | > 100 µM (inactive) | > 100 µM (inactive) | > 100 µM (inactive) | > 100 µM (inactive) | > 100 µM (inactive) | 51.9 µM (inactive) | > 100 µM (inactive) | > 100 µM (inactive) | > 100 µM (inactive) | > 100 µM (inactive) | > 100 µM (inactive) | > 100 µM (inactive) | > 100 µM (inactive) | > 100 µM (inactive) | > 100 µM (inactive) | > 100 µM (inactive) | > 100 µM (inactive) |  | > 100 µM (inactive)
12 | CCCN(CCC)C(=S)N/N=C/c1ccccn1 | 0.282 µM (active) | 0.143 µM (active) | < 0.01 µM (active) | < 0.0135 µM (active) | < 0.0195 µM (active) | < 0.01 µM (active) | < 0.01 µM (active) | < 0.01 µM (active) | < 0.01 µM (active) | < 0.0186 µM (active) | < 0.01 µM (active) | < 0.01 µM (active) | 0.0372 µM (active) | < 0.014 µM (active) | < 0.0125 µM (active) | 0.0203 µM (active) | < 0.01 µM (active) | 0.118 µM (active) | < 0.01 µM (active) | 0.0463 µM (active)
13 | CN(C)/C=N/c1ccc2c3c(cccc13)-c1ccccc1-2 | 14.4 µM (inactive) | 12.7 µM (inactive) | 10.2 µM (inactive) | 12.5 µM (inactive) | 12.6 µM (inactive) | 5.58 µM (inactive) | 15.5 µM (inactive) | 10 µM (inactive) | 14.9 µM (inactive) | 16.6 µM (inactive) | 10.1 µM (inactive) | 10.3 µM (inactive) | 10.1 µM (inactive) |  | 10.2 µM (inactive) | 13.8 µM (inactive) | 14.5 µM (inactive) | 12.1 µM (inactive) | 14.6 µM (inactive) | 18.5 µM (inactive)
14 | CCCCCCCCCCCCC(O)C1CCC(C(O)CCCCCCC(O)CCCCCCCC2=CC(C)OC2=O)O1 (stereo not drawn) | 34.4 µM (inactive) | > 10 µM (inactive) | 6.55 µM (inactive) | 6.53 µM (inactive) | 25.8 µM (inactive) | 3.92 µM (inactive) | 35.5 µM (inactive) |  | 20.8 µM (inactive) | 19.7 µM (inactive) | 7.29 µM (inactive) | 0.407 µM (active) | 32.8 µM (inactive) | 8.3 µM (inactive) | 19.2 µM (inactive) | 35.4 µM (inactive) | 13 µM (inactive) | > 10 µM (inactive) | 36.6 µM (inactive) | 25.9 µM (inactive)
15 | Nc1nc(Cl)cc(NCC2(CO)CC(O)C2)n1 (stereo not drawn) | > 100 µM (inactive) | > 100 µM (inactive) | > 100 µM (inactive) | > 100 µM (inactive) | > 100 µM (inactive) | > 100 µM (inactive) | > 100 µM (inactive) | > 100 µM (inactive) | > 100 µM (inactive) | > 100 µM (inactive) | > 100 µM (inactive) | > 100 µM (inactive) | > 100 µM (inactive) | > 100 µM (inactive) |  | > 100 µM (inactive) | > 100 µM (inactive) | > 100 µM (inactive) | > 100 µM (inactive) | > 100 µM (inactive)
